# Assay results: patent US20250152504A1, “INTRAUTERINE SYSTEMS COMPRISING ANTI-INFECTIVES FOR STEADY-STATE ACCUMULATION TO DISTAL EXTRAUTERINE TISSUE” (priority 2023, published 2025)
# Experiments:
# physchem = assay type: physicochemical; settings: 37 °C, aqueous with cosolvent or surfactant or cyclodextrin, thermodynamic from solid
# From the text: FIGS. 6A-6C are graphs showing differential dapivirine release driven by polymer crystallinity and water penetration, in accordance with the present technology.
# [1] = In vitro drug release from TPU matrix delivery system prototypes; assay type: physicochemical; settings: for Predicted T50%: from best-fit release model
# Procedure: Films were cut into disks with a 1-inch diameter die punch; disks were stacked and placed between two pieces of aluminum foil and compressed under a metal weight on a 120° C. dry bath. Thickness was monitored frequently until it measured 3.5 mm with digital calipers calibrated to 0.01 mm. Devices were cut from thick films using a custom rectangular 3.5 mm×13.3 mm die punch.
# (§1) All release tests were performed in sink conditions in PBS supplemented with 2% w/v Cremophor® A25/Emulgin® B25. For the first 7-days of drug release testing, 1 mL samples were taken daily; following 7 days, samples were taken every 3-4 days. At all timepoints, bottles were drained and replaced with fresh media following sampling.
# A qualification for selecting an optimal TPU for DPV delivery in this application is the time to achieve 50% cumulative release of drug. This is based on the standard use time of hormonal IUDs, which in practice are removed once about half of the initial load of drug is depleted from the device. Here, this standard was used as a benchmark to evaluate the sustained release properties of candidate delivery system designs. […] The fit of first-order release kinetics to the data was assessed. Equations 1 and 2 describe drug release from a system where dissolution is dependent on a concentration gradient.
# Where k is the first order rate constant, Ct is the concentration of drug in solution at time t and C0 is the initial concentration of drug.
# Where Q is the amount of drug release in time t and kh is the Higuchi release constant.
# Based on the best-fit square-root of time relation, T50% was calculated for each TPU. […] Korsmeyer and Peppas provided a method for understanding drug release mechanisms of swelling and non-swelling polymeric systems, given by Equation 4: […]
# Where Mt/M∝ is the fraction of drug released at time t, K is the rate constant, and n is the release exponent.
# HIV-1 = settings: cited from earlier work
# [2] = assay type: physicochemical
# From the text: Both polyether sheath reservoirs (R1 & R2) released DPV faster than polycarbonate sheath reservoirs (R3 & R4). […] Thus, with DPV loaded at 1 wt % which is below the saturation solubility, these reservoirs contain a nonconstant activity source. Pursuant to the behavior of reservoirs with a nonconstant activity source, these reservoirs released drug following first-order release kinetics. Despite this expectation, drug release from all four reservoir devices was described slightly better by a square-root of time dependence.
# [3] = In vitro release of 1% dapivirine from ethylene-vinyl acetate polymers; assay type: physicochemical; settings: 1% DPV in EVA, within 720 hours
# From the text: Ethylene-vinyl acetate polymers (EVA) were also investigated for the use in the intrauterine systems described herein. FIGS. 19A-19B are graphs showing release for dapirivine (DPV) in ethylene-vinyl acetate polymers (EVAs), in accordance with the present technology.
# [4] = assay type: in vivo; settings: baboon, about one month of intrauterine instillation
# From the text: Animals were monitored for signs of discomfort including decreased appetite, lethargy, and hunched posture. Tissue biopsies for histological analysis were fixed in 4% paraformaldehyde, dehydrated in alcohol, and embedded in paraffin. Cross sectional samples (5 μm) were taken and stained with hematoxylin and eosin (H&E) stain.
# Vaginal tissue biopsies taken pre-insertion and 28-days post-insertion show characteristic features of healthy a vaginal epithelium, including a multilayered stratified squamous epithelium consisting of enucleated cells, a densely nucleated basal cell layer, and an inconspicuous lamina propria. Vaginal tissue biopsied 28-days post insertion has an intact stratified squamous epithelium that measures approximately 200 μm thick. Both pre-insertion and 28-days post-insertion cervical biopsies contain regions of a single columnar epithelium, while the underlying cervical stroma is composed of densely vascularized, fibromuscular tissue. The 28-day post-insertion cervical biopsy contains a thick stratus corneum of the exocervix; the epithelium overlays a prominent lymphoid aggregate, a feature of mucosa-associated lymphoid tissue (MALT) in the type I mucosa of the endocervix. Some cellular atypia is notable as a few epithelial cells display irregular nuclear membranes and perinuclear halos. […]
# [5] = cited from earlier work
# [6] = In vitro drug release from core-sheath reservoir delivery system prototypes; assay type: physicochemical; settings: 6 core-sheath reservoir prototypes, core TPU loaded at 1 wt %, three sheath polymers, 100 and 200 μm sheath thickness
# Procedure: Reservoir delivery system prototypes were prepared using a heated coextrusion process. Briefly, core polymer (PY-PT43DE20) was melted and homogenized with the appropriate mass of dapivirine to achieve 1 wt % and 30 wt % core polymer loading. […] The inner crosshead diameter was varied mid-extrusion to generate devices with sheath thicknesses ranging from 100-200 μm while retaining a constant outer diameter. Material was cut to the desired length per device (13.33 mm) and in-spec devices were identified based on sheath thickness using brightfield microscopy. Devices were incubated for two weeks at 40° C. to equilibrate drug in the core and sheath compartments.
# as §1, with “sampling. For reservoir delivery system prototypes, three replicates of each formulation were end capped and one device was tested with no end cap to confirm the integrity of the end cap in preventing uncontrolled diffusion form the exposed core.” for “sampling.”
# Both polyether sheath reservoirs (R1 & R2) released DPV faster than polycarbonate sheath reservoirs (R3 & R4). […]
# [7] = 20 wt % matrix, hydrophobic and crystalline TPU, after 20 days
smiles,measurement,setting,value
"Cc1cc(C)c(Nc2ccnc(Nc3ccc(C#N)cc3)n2)c(C)c1 [DPV, dapivirine]",solubility,physchem,164 ± 9.4 µg/mL
same,DPV dose released per day,"[1]; 1 wt % DPV, all four TPUs, within target range",10 to 50 µg/day
same,Actual T50%,"[1]; 1 wt % loading, TPU1 matrix",12 days
same,First-Order: k,"[1]; 1 wt % loading, TPU1 matrix","0.002, h^−1"
same,Higuchi: kH,"[1]; 1 wt % loading, TPU1 matrix","0.029, %/h^1/2"
same,Korsmeyer-Peppas Constant: n,"[1]; 1 wt % loading, TPU1 matrix","0.525,"
same,Predicted T50%,"[1]; 1 wt % loading, TPU1 matrix",12 days
same,Actual T50%,"[1]; 1 wt % loading, TPU2 matrix",12 days
same,First-Order: k,"[1]; 1 wt % loading, TPU2 matrix","0.002, h^−1"
same,Higuchi: kH,"[1]; 1 wt % loading, TPU2 matrix","0.027, %/h^1/2"
same,Korsmeyer-Peppas Constant: n,"[1]; 1 wt % loading, TPU2 matrix","0.549,"
same,Predicted T50%,"[1]; 1 wt % loading, TPU2 matrix",13.5 days
same,Actual T50%,"[1]; 1 wt % loading, TPU3 matrix",7 days
same,First-Order: k,"[1]; 1 wt % loading, TPU3 matrix","0.004, h^−1"
same,Higuchi: kH,"[1]; 1 wt % loading, TPU3 matrix","0.038, %/h^1/2"
same,Korsmeyer-Peppas Constant: n,"[1]; 1 wt % loading, TPU3 matrix","0.662,"
same,Predicted T50%,"[1]; 1 wt % loading, TPU3 matrix",7 days
same,First-Order: k,"[1]; 1 wt % loading, TPU4 matrix","0.0007, h^−1"
same,Higuchi: kH,"[1]; 1 wt % loading, TPU4 matrix","0.017, %/h^1/2"
same,Korsmeyer-Peppas Constant: n,"[1]; 1 wt % loading, TPU4 matrix","0.614,"
same,Predicted T50%,"[1]; 1 wt % loading, TPU4 matrix",36 days
same,cumulative release of encapsulated drug,"[1]; 1 wt %, TPU3 matrix, by 30 days / one month",approximately 95%
same,First-Order: k,"[1]; 16.6 wt % loading, TPU4 matrix",0.0005 h⁻¹
same,Higuchi: kH,"[1]; 16.6 wt % loading, TPU4 matrix","0.014, %/h^1/2"
same,Predicted T50%,"[1]; 16.6 wt % loading, TPU4 matrix",53.5 days
same,cumulative release of loaded drug,"[1]; 16.6 wt %, TPU4 matrix, after 30 days",approximately 33.5%
same,release rate,"[1]; 16.6 wt %, TPU4 matrix, final rate at 30 days, per each ⅓ segment of the device",approximately 62.56 μg/day
same,inhibition of provirus formation,HIV-1; at 1 nM (0.33 ng/mL),99%
same,infection prevented (dissemination of HIV-1 by CD4+ dendritic cells),HIV-1; at 10 nM (3.3 ng/mL),90%
same,IC90 in cervicovaginal tissue,HIV-1; concentration with which tissue explants were treated,3.3 ng/mL
same,lowest concentration inhibiting productive infection of ectocervical tissue,HIV-1; ex vivo viral inhibition model,0.1 nM
same,saturation solubility of DPV in a PY-PT43DE20 core,[2],5.46±0.93 wt %
same,cumulative release of loaded DPV,[3],about 80%
same,tolerability / histological findings,[4],likely safe and well-tolerated in baboons
same,Cmax,[5]; in vivo,0.355 ng/mL
same,treatment-emergent adverse events,[5]; in vivo,no treatment-emergent adverse events were observed
same,plasma concentration required to reduce viral load,[5]; oral DPV administration,100 to 200 ng/mL
"Cc1nc(N(C)C(=O)Cc2ccc(-c3ccccn3)cc2)sc1S(N)(=O)=O [PTV, pritelivir]",time for half of the original dose to release,"[1]; 20 wt % matrix, Higuchi release kinetic analysis",approximately 500 days
same,cumulative release,[1]; [7],approximately 9%
same,release rate,[1]; [7],30 µg/day
same,duration of use of the device,"[1]; matrix device loaded with 20-30 mg of PTV, tested in vitro for 480 hours",3-4 years
same,daily release,[6],1 to 40 µg/day
